Data set [1] has as its system A549 (lung carcinoma). Nature of the data set: sulforhodamine B cell cytotoxicity assay, A549. In kind it is cell-based. The settings on record: Homo sapiens, Table 2, SRB assay, 48 h of exposure. On the procedure: (§1) The human cancer cell lines—KB (oral squamous cell carcinoma). C33A (cervical carcinoma), MCF-7 (breast adenocarcinoma), A549 (lung carcinoma) and mouse embryo fibroblast (NIH3T3) were obtained from American Type Culture Collection (ATCC), USA. These cells were grown in recommended media supplemented with 10% FBS, 50 μg/mL gentamycin and 2.5 μg/mL amphotericin B in a 5% CO2 humidified atmosphere at 37° C. Cells below 15 passage level were used for this study. A colorimetric sulforhodamine B assay was used for the measurement of cell cytotoxicity. 1×10^4 cells (in 180 μL) were added to each well of 96-well plate and incubated overnight to allow for cell attachment. Cells were then treated with serial two-fold dilutions of test compounds (100 to 1.6 μM) and untreated cells receiving the same volume of medium served as control. After 48 h of exposure, cells were fixed with ice-cold 50% TCA, stained with 0.4% (w/v) SRB in 1% acetic acid, washed and air dried. Bound dye was dissolved in 150 μL of 10 mM tris base. The plates were read at 540 nm absorbance on plate reader (Polarstar Galaxy, BMG, Germany). The cytotoxic effects of compounds were calculated as % inhibition in cell growth as per the formula […].

For data set [2], the system named is HeLa Human cervical cancer cells. Nature of the data set: human tumor xenograft in SCID mice, tumor growth. In kind it is in vivo. The settings on record: for T/C (tumor growth inhibition index): 100 mg/kg daily oral upto 15 days; for RTV (relative tumor volume): 100 mg/kg p.o. daily up to 15 days. On the procedure:
(§2) The in vivo efficacy studies were performed using human tumor xenografts in SCID mice. Human cervical cancer cells (HeLa) were injected subcutaneously (1×10^7 cells in 100 μl HBSS medium) on the right flank of each mouse. Tumor bearing mice were divided randomly into treatment groups and the treatment schedules began on day 7 of the xenograft. The test compound (S009-0131) was administered orally to each mouse at a daily dose of 100 mg/kg body weight, for 15 days. The standard anti-cancer drug Adriamycin (ADR) was used as ‘positive’ control and given to each mouse as an i.v. dose of 2 mg/kg body weight, Q7d×3 ([…]). The group of vehicle treated animals served as ‘negative’ control.
(§3) The tumor volume, body weight and signs of overt toxicity were monitored and recorded for the entire duration of the experiment (60 days). Tumor volumes were calculated using the formula (a×b2)/2, where a, b are two longest perpendicular diameters. Tumor growth was expressed in terms of relative tumor volume (RTV) which is the ratio of tumor volume on a particular day to the tumor volume on day 1 of the study. Tumor growth inhibition index (T/C) was calculated as follows: T/C=Average RTV of test group mice/Average RTV of control group mice.
(In xenograft studies the graft and the host belong to different species.)

Data set [3] deals with MCF-7 (breast adenocarcinoma). Nature of the data set: sulforhodamine B cell cytotoxicity assay, MCF-7. The settings on record: Homo sapiens, MCF7; Table 2; SRB assay, 48 h of exposure. In kind it is cell-based. Here is the method: as §1
A general note: Sulforhodamine B stains cellular protein and so reports cell mass.

Data set [4] concerns human cancer cell lines. Nature of the data set: in vitro anticancer activity, cell line panel (cell line not specified). Format: cell-based. The settings on record: poor activity or lack of activity against other cell lines. Here is the method: as §1
The subject of data set [5] is KB (oral squamous cell carcinoma). Nature of the data set: sulforhodamine B cell cytotoxicity assay, KB. In kind it is cell-based. The settings on record: Homo sapiens; Table 2; SRB assay, 48 h of exposure. Here is the method:
as §1

For data set [6], the system named is mouse embryo fibroblast (NIH3T3). Nature of the data set: sulforhodamine B cell cytotoxicity assay, NIH3T3 non-cancer cells. In kind it is cell-based. Here is the method:
as §1

Data set [7] has as its system C33A (cervical carcinoma). Nature of the data set: sulforhodamine B cell cytotoxicity assay, C33A. The settings on record: for IC50: Homo sapiens, C-33-A. In kind it is cell-based, human. On the procedure: as §1
A short description of data set [8]: animal weight and overt toxicity in the xenograft study. In kind it is in vivo, SCID mice. The settings on record: for Average Animal weight: 100 mg/kg daily oral upto 15 days. Here is the method:
as §2, §3

[9] abbreviates: Table 1, SRB assay, 48 h of exposure, read-out: IC50 NIH3T3 (mouse fibroblast).
The mark [10] stands for this setting: Table 2, SRB assay, 48 h of exposure, read-out: IC50 NIH3T3 (Non-cancer, fibroblast).
[11] abbreviates: Table 1, SRB assay, 48 h of exposure, read-out: IC50 C33A (cervical cancer).
Where [12] appears, read: Table 2, SRB assay, 48 h of exposure, read-out: IC50 C33A (Cervical).

Like-named read-outs stand apart in the source and are kept apart here.

A word on the IC50: it is the concentration that inhibits the measured activity by half. For `CCOC(=O)c1cc2cc(C=CC(=O)c3ccc(C)cc3)cc(C(C)CC)c2oc1=O` (stereo not drawn) [Example S009-0131, Ethyl 8-sec-butyl-2-oxo-6-(3-oxo-3-p-tolylprop-1-enyl)-2H-chromene-3-carboxylate], the IC50 is 32.8 µM in data set [1]; 81.1 µM in data set [3]; 18 µM in data set [5]; over 150 µM in [6] (setting [9]); over 150 µM in data set [6] (setting [10]); over 150 µM in [6] (read-out: IC50 fibroblast cells NIH3T3). The IC50 in data set [7] (setting [11]), in [7] (setting [12]) and in [7] (read-out: IC50 against the C33A cell line) was 3.59 µM throughout. Besides, in [2] (HeLa xenograft, SCID mice), the “activity compared with standard drug adriamycin” value is listed as “somewhat better than that of the standard drug adriamycin”. In addition, the “T/C (tumor growth inhibition index)” value in [2] (day 1) was determined as 1; in data set [2] (day 5) it was 0.58; in [2] (day 9), 0.48; in data set [2] (day 12), 0.61; in [2] (day 15) it was 0.39; in data set [2] (day 19), 0.28. In addition, the “T/C (tumor growth inhibition index)” value in [2] (day 22) stood at 0.33; in data set [2] (day 25) it was 0.29; in data set [2] (day 29), 0.33; in data set [2] (day 33) it was 0.42; in data set [2] (day 37), 0.42; in data set [2] (day 41) it was 0.44. For the same compound, the entries for the “T/C (tumor growth inhibition index)” value in data set [2] (day 44) and in data set [2] (day 51) were 0.45 and 0.38, respectively. Also, the “RTV (relative tumor volume)” value in [2] (day 1) was determined as 1; in data set [2] (day 5), 0.76; in data set [2] (day 9), 0.79; in [2] (day 12) it was 1.21; in [2] (day 15), 1.28; in [2] (day 19), 1.01. The “RTV (relative tumor volume)” value in [2] (day 22) was determined as 1.73; in data set [2] (day 25) it was 1.82; in data set [2] (day 29), 2.39; in data set [2] (day 33) it was 4.20. The “tumor volumes relative to the vehicle control” value in data set [2] (oral administration, mice bearing HeLa cells) is given as “significant reduction of tumor volumes”. The “selectivity among cell lines” value in [4] is on record as “most selective”. Further, in [7] (in words), the “activity against cervical cancer (C33A)” value is “highly active”. The “Average Animal weight” value in data set [8] (day 1) is given as 24.2 grams; in data set [8] (day 5), 24.2 grams; in data set [8] (day 9), 23.5 grams; in data set [8] (day 12) it was 18.5 grams; in [8] (day 15) it was 22.6 grams; in data set [8] (day 19), 22.4 grams. Moreover, the “Average Animal weight” value stood at 23.0 grams in data set [8] (day 22); 23.2 grams in [8] (day 25); 23.6 grams in data set [8] (day 29); 23.3 grams in data set [8] (day 33); 23.0 grams in data set [8] (day 37); 23.4 grams in data set [8] (day 41). Also, the “Average Animal weight” value turned out to be 23.8 grams in data set [8] (day 44) and 23.4 grams in [8] (day 51). Also, the “toxicity to the animals (loss of weight)” value in [8] (during the period of the study) was “apparently non-toxic”.

By melting point is commonly meant the temperature, or range, at which the solid turns liquid. Turning to `CCOC(=O)c1cc2cc(/C=C/C(=O)c3cc(OC)c(OC)c(OC)c3)cc(C(C)CC)c2oc1=O` (stereo not drawn) [Example S010-2000, (E)-ethyl 8-sec-butyl-2-oxo-6-(3-oxo-3-(3,4,5-trimethoxyphenyl)prop-1-enyl)-2H-chromene-3-carboxylate], the melting point was in the range of 128 to 129 °C. This compound displayed an IC50 in [1] of 11.6 µM. This compound displayed an IC50 in [3] of 11.5 µM. The IC50 in data set [5] was determined as 9.36 µM. Besides, the IC50 in data set [6] (setting [10]) was over 150 µM. Moreover, the IC50 in data set [7] (setting [12]) turned out to be 5.72 µM.

`CCOC(=O)c1cc2cc(C=O)cc(C(C)CC)c2oc1=O` (stereo not drawn) [Example S009-0139, Ethyl 8-sec-butyl-6-formyl-2-oxo-2H-chromene-3-carboxylate] returned a melting point of 89 to 90 °C. This compound yielded an IC50 in data set [1] of 147 µM. The compound further gave an IC50 in data set [3] of 113 µM. The IC50 in [5] is 132 µM. Besides, the IC50 in [6] (setting [9]) was over 150 µM. In addition, the IC50 in data set [6] (setting [10]) is over 150 µM. Besides, the IC50 in data set [7] (setting [11]) stood at 64.3 µM. Further, the concentration for half-maximal inhibition (IC50) in data set [7] (setting [12]) stood at 64.3 µM.

For `CCN(CC)C(=O)c1cc2cc(/C=C/C(=O)c3ccc(C)cc3)cc(C(C)(C)C)c2oc1=O` [Example S010-1992, (E)-8-tert-butyl-N,N-diethyl-2-oxo-6-(3-oxo-3-p-tolylprop-1-enyl)-2H-chromene-3-carboxamide], the melting point lay within 170 to 171 °C. This compound came in with an IC50 in data set [1] of 1.5 µM. In [3], this compound gave an IC50 of under 7.01 µM. The compound further returned an IC50 in data set [5] of 2.02 µM. In addition, the IC50 in [6] (setting [10]) is over 150 µM. Further, in [7] (setting [12]), the IC50 came out at 1.53 µM.
